According to PMC10056899, “Neuroprotective and Antiherpetic Properties of Polyphenolic Compounds from Maackia amurensis Heartwood” (Molecules, 2023):
Where “and” joins values, the source holds several entries; their conditions need not be identical. Identical values can stand only once. Like-named read-outs stand apart in the source and are kept apart here.

Key:
[1] = system: HSV-1; assay: Anti-HSV-1 activity, cytopathic effect (CPE) inhibition assay in Vero cells; format: cell-based, HSV-1 strain L2; settings: for IC50: read-out: IC50 (CPE assay); for SI = CC50/IC50: Vero cells, HSV-1
Method: The HSV-1 strain L2 and Vero cell culture (kidney epithelial cells of the African green monkey Chlorocebus sp.) were obtained from the N.F. Gamaleya Federal Research Centre for Epidemiology and Microbiology (Moscow, Russia). HSV-1 was grown in Vero cells, using Dulbecco′s Modified Eagle′s Medium (DMEM, Biolot, St. Petersburg, Russia) supplemented with 10% fetal bovine serum (FBS, Biolot, St. Petersburg, Russia) and 100 U/mL of gentamycin (Dalkhimpharm, Khabarovsk, Russia), at 37 °C in a CO2 incubator. In the maintenance medium, the FBS concentration was decreased to 1%.
The tested compounds were dissolved in DMSO (Sigma, St. Louis, MO, USA) at a concentration 10 mg/mL and stored at −20 °C. For cytotoxicity and anti-HSV-1 activity determination, the stock solutions were diluted with DMEM so that the final concentration of DMSO was 0.5%.
The anti-HSV-1 activity of stilbenes was evaluated using cytopathic effect (CPE) inhibition assay in Vero cells. We infected the monolayer of cells grown in 96-well plates (1 × 10^4 cells/well) with 100 µL/well of virus suspension (100 TCD50/mL) and we simultaneously treated it with stilbenes 1–6 (100 µL/well) at various concentrations (from 1 to 400 μg/mL) for one hour at 37 ◦C. After virus absorption, we removed the mixture of virus and stilbenes, washed the cells, and added the maintenance medium with 1% FBS. […] We used MTT assay to evaluate the antiviral activity of stilbenes. The viral inhibition rate (IR, %) was calculated according to Equation (3):(3) IR, %=Atv−Acv/Acd−Acv×100, where: • Atv is the absorbance of cells infected with virus and treated with a polyphenolic compound; • Acv is the absorbance of the untreated virus-infected cells; • Acd is the absorbance of control (untreated and non-infected) cells.
The selectivity index (SI) was calculated as the ratio of CC50 to IC50. Experiments were repeated three times.

[2] = system: PQ-treated Neuro-2a cells; assay: Intracellular ROS level in PQ-treated cells (H2DCF-DA); format: cell-based, murine; settings: 10 μM, PQ 1 mM
Method: After 24 h of adhesion, Neuro-2a cells (1 × 10^4 cells/well) were incubated with stilbenes (0.01–10 µM) for 1 h. After that, we added PQ (1 mM) to each well and incubated the cells for 3 h. To study ROS formation, we added 20 µL of 2,7-dichlorodihydrofluorescein diacetate solution ([…], H2DCF-DA, Molecular Probes, Eugene, OR, USA) to each well, so that the concentration was 10 µM, and kept the microplate in a CO2–incubator for additional 30 min at 37 °C.

[3] = Ferric reducing antioxidant power (FRAP) assay; settings: 4 min, pH 3.6
[4] = system: PQ-treated Neuro-2a cells; assay: Mitochondrial membrane potential in PQ-treated cells (TMRM); format: cell-based, murine; settings: 10 μM
Method: […] Then, we added PQ (500 μM) and kept the cell suspension in a CO2-incubator for 1 h. Cells incubated without PQ and stilbenes and with PQ only were used as positive and negative control, respectively. We added the tetramethylrhodamine methyl (TMRM) (Sigma-Aldrich, St. Louis, MO, USA) solution (500 nM) to each well and kept the cells for 30 min in a CO2-incubator at 37 °C. The intensity of fluorescence was measured with a PHERAstar […] reader (BMG Labtech, Ortenberg, Germany) at λex = 540 nm and λem = 590 nm. We processed the data by MARS Data Analysis v. 3.01R2 (BMG Labtech, Ortenberg, Germany) and presented the results as percentages of the positive control value.

Row | SMILES | IC50 ([1]; Human alphaherpesvirus 1, Vero) | SI = CC50/IC50 [1] | Reduction of intracellular ROS level in PQ-treated cells [2] | FRAP CFe2+(µM)/Cpolyphenolic compound (µM) [3] | FRAP CFe2+(µM)/Cpolyphenolic compound (μkg/mL) [3] | IC50 ([1]; Human alphaherpesvirus 1, added to Vero cells simultaneously with the virus, 100 TCD50/mL) | Increase of mitochondrial membrane potential compared to PQ-treated cells [4]
1 | COc1ccc([C@@H]2COc3cc(O)ccc3[C@H]2c2c(O)cc(O)cc2/C=C/c2ccc(O)c(O)c2)c(O)c1 [Compound 1] | 14 µg/mL and 27.2 µM | 11.6 ± 1.3 | 17% | 12.36 ± 1.38 CFe2+(µM)/Cpolyphenolic compound (µM) | 24.04 ± 2.68 CFe2+(µM)/Cpolyphenolic compound (μkg/mL) |  | 
2 | Oc1ccc(/C=C/c2cc(O)cc3c2[C@H](c2cc(O)cc(O)c2)[C@@H](c2ccc(O)c(O)c2)O3)cc1 [Compound 4, scirpusin A] |  | 14.4 ± 1.7 | 7% | 11.44 ± 1.41 CFe2+(µM)/Cpolyphenolic compound (µM) | 24.34 ± 3.00 CFe2+(µM)/Cpolyphenolic compound (μkg/mL) | 13.8 µg/mL and 29.4 µM | 26%
